This is an account of results in patent US11192850B2, “N-aryl oxamic acids” (Purdue Research Foundation, priority 2020, dated 2021).

Type in all cases: biochemical
For assay [1], the target named is SHP2 (Homo sapiens (Human), UniProt Q06124). Put plainly: pNPP inhibition assay against SHP2. Particulars: pNPP at Km of the PTP.
Assay [2] addresses PTP1B (Homo sapiens (Human), UniProt P18031). Put plainly: pNPP inhibition assay against PTP1B. Particulars: pNPP at Km of the PTP.
For assay [3], the target named is SHP1 (Homo sapiens (Human), UniProt P29350). In words: pNPP inhibition assay against SHP1. The settings on record: pNPP at Km of the PTP.
Assay [4] addresses mPTPB (Mycobacterium tuberculosis (strain ATCC 25618 / H37Rv), UniProt I6WXK4).
[5] abbreviates: pNPP assay, pH 7.0, 3.0 mM pNPP.

Read-outs that look alike come from different tables or passages of the source. Some results are limits rather than exact numbers.

SHP2, sequence (Q06124 247-517): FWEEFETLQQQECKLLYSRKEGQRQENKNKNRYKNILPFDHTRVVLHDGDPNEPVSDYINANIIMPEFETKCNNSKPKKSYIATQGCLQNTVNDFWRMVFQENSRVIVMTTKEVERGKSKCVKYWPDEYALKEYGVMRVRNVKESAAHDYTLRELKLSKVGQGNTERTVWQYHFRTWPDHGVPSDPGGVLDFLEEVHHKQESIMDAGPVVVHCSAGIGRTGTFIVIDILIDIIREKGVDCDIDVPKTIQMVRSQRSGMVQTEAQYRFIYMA
mPTPB, sequence (I6WXK4 whole entry, looked up): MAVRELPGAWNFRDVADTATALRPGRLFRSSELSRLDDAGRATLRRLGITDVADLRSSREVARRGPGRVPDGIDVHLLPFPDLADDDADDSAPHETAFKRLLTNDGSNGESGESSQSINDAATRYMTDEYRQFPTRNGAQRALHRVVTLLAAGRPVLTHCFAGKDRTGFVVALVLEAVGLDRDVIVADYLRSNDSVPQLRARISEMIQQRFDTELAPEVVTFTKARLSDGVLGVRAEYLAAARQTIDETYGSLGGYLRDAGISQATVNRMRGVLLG
SHP1, sequence (P29350 244-515): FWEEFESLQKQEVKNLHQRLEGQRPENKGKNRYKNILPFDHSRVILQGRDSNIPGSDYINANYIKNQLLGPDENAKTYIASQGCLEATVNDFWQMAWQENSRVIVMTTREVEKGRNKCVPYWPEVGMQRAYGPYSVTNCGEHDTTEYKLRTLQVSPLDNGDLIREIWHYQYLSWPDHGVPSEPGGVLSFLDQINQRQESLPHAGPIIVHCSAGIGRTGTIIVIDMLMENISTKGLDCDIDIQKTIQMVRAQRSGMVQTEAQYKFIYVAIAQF
PTP1B, sequence (P18031 3-277): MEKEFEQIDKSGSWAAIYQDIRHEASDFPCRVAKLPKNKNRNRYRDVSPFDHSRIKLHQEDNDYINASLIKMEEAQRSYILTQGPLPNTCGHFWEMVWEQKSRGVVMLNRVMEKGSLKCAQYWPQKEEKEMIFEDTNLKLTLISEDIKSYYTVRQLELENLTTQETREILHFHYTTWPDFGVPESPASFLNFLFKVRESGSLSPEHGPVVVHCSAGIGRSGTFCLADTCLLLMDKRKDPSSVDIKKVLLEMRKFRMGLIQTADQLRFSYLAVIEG

In general, IC50 refers to the point on the concentration scale where inhibition reaches its midpoint. A high value points to weaker potency. `O=C(O)C(=O)Nc1ccc(-c2ccccc2)cc1` [Compound 6, 2-([1,1′-biphenyl]-4-ylamino)-2-oxoacetic Acid]: the IC50 in assay [1] is 29 ± 8 µM; in assay [2], 62 ± 5 µM.

As for `CN(C)c1cc(O)c(C(=O)O)cc1C#Cc1ccc(NC(=O)C(=O)O)cc1` [Compound 4f, 5-((4-(carboxyformamido)phenyl)ethynyl)-4-(dimethylamino)-2-hydroxybenzoic Acid], the IC50 in assay [1] is 78.5 ± 4.2 µM; in assay [3], 59.3 ± 6 µM; in assay [4] (setting [5]), 0.09 ± 0.008 µM; in assay [2] it was more than 100 µM.

`COC(=O)c1cc(C#Cc2cccc(NC(=O)C(=O)O)c2)c(N(C)C)cc1O` [Compound 4e, 2-((3-((2-(dimethylamino)-4-hydroxy-5-(methoxycarbonyl)phenyl)ethynyl)phenyl)amino)-2-oxoacetic Acid]: the IC50 in assay [1], in assay [3] and in assay [2] was more than 50 µM each time.

For the compound `O=C(O)C(=O)Nc1ccc(C#Cc2ccccc2)cc1` [Compound 4, 2-oxo-2-((4-(phenylethynyl)phenyl)amino)acetic Acid], the IC50 was more than 100 µM in assay [1], more than 100 µM in assay [3], 0.257 ± 0.008 µM in assay [4] and more than 100 µM in assay [2]. The “fold more potency compared to the meta derivative 5” value in assay [4] amounted to 2 fold.

On to `O=C(O)C(=O)Nc1cccc(-c2ccccc2)c1` [Compound 7, 2-([1,1′-biphenyl]-3-ylamino)-2-oxoacetic Acid], for which the 50% inhibitory concentration (IC50) in assay [1] and in assay [2] was more than 100 µM throughout.

On to `O=C(O)C(=O)Nc1ccc(CCc2ccccc2)cc1` [Compound 11, 2-oxo-2-((4-phenethylphenyl)amino)acetic Acid], for which the IC50 is more than 30 µM in assay [1], 1.27 ± 0.2 µM in assay [4] and more than 30 µM in assay [2]. Besides, the “fold less potency compared to corresponding alkyne analogs 4 and 4k” value in assay [4] is reported as 5 fold.

`CC(C)(C)OC(=O)Nc1ccc(C#Cc2ccc(NC(=O)C(=O)O)cc2)cc1` [Compound 4s, 2-((4-((4-((tert-butoxycarbonyl)amino)phenyl)ethynyl)phenyl)amino)-2-oxoacetic Acid]: the IC50 in assay [1], in assay [3] and in assay [2] was more than 50 µM in each case.

With `O=C(O)C(=O)Nc1cnc2ccccc2c1` [Compound 8, 2-oxo-2-(quinolin-3-ylamino)acetic Acid], the IC50 was more than 100 µM in assay [1], more than 10 µM in assay [4] (setting [5]) and more than 100 µM in assay [2].

On to `COC(=O)c1cc(C#Cc2ccc(NC(=O)C(=O)O)cc2)c(N(C)C)cc1O` [Compound 4d, 2-((4-((2-(dimethylamino)-4-hydroxy-5-(methoxycarbonyl)phenyl)ethynyl)phenyl)amino)-2-oxoacetic Acid], for which the IC50 in assay [1] was more than 50 µM; in assay [3], more than 50 µM; in assay [4] (setting [5]), 0.03 ± 0.009 µM; in assay [2], more than 50 µM.

In the case of `N#Cc1ccc(C#Cc2ccc(NC(=O)C(=O)O)cc2)cc1` [Compound 4o, 2-((4-((4-cyanophenyl)ethynyl)phenyl)amino)-2-oxoacetic Acid], the IC50 in assay [1], in assay [3] and in assay [2] was more than 50 µM each time.

As for `N#Cc1cc(C(F)(F)F)ccc1C#Cc1ccc(NC(=O)C(=O)O)cc1` [Compound 4w, 2-((4-((2-cyano-4-(trifluoromethyl)phenyl)ethynyl)phenyl)amino)-2-oxoacetic Acid], the values for the IC50 in assay [1], in assay [3] and in assay [2] were 10.6 ± 2.5 µM, 13.7 ± 3.1 µM and 27.4 ± 6.3 µM, respectively.

Consider `O=C(O)C(=O)Nc1ccc(C#Cc2ccc(OC(F)(F)F)cc2)cc1` [Compound 4i, 2-oxo-2-((4-((4-(trifluoromethoxy)phenyl)ethynyl)phenyl)amino)acetic Acid], for which the IC50 in assay [1], in assay [3] and in assay [2] was more than 50 µM in each case.

Regarding `O=C(O)C(=O)Nc1ccc(C#Cc2cc(C(F)(F)F)cc(C(F)(F)F)c2)cc1` [Compound 4p, 2-((4-((3,5-bis(trifluoromethyl)phenyl)ethynyl)phenyl)amino)-2-oxoacetic Acid], the IC50 was more than 50 µM in assay [1], more than 50 µM in assay [3], 0.06 ± 0.009 µM in assay [4] and more than 50 µM in assay [2]. Moreover, the “difference in IC50 values with and without Triton X-100 and with preincubation” value in assay [4] is listed as “no significant difference”.

Take `O=C(O)C(=O)Nc1ccc(C#Cc2ccc(C(F)(F)F)cc2C(F)(F)F)cc1` [Compound 4x, 2-((4-((2,4-bis(trifluoromethyl)phenyl)ethynyl)phenyl)amino)-2-oxoacetic Acid]: the concentration for half-maximal inhibition (IC50) in assay [1], in assay [3] and in assay [2] was more than 30 µM throughout.

On to `COC(=O)c1ccc(C#Cc2ccc(NC(=O)C(=O)O)cc2)cc1O` [Compound 4c, 2-((4-((3-hydroxy-4-(methoxycarbonyl)phenyl)ethynyl)phenyl)amino)-2-oxoacetic Acid], for which the IC50 in assay [1], in assay [3] and in assay [2] was more than 50 µM each time.

Turning to `COC(=O)c1cc(C#Cc2ccc(NC(=O)C(=O)O)cc2)ccc1O` [Compound 4b, 2-((4-((4-hydroxy-3-(methoxycarbonyl)phenyl)ethynyl)phenyl)amino)-2-oxoacetic Acid], the IC50 in assay [1] was 27.3 ± 3.3 µM; in assay [3] it was more than 50 µM; in assay [4] (setting [5]), 0.025 ± 0.003 µM; in assay [2], more than 50 µM.

For the compound `O=C(O)C(=O)Nc1ccc(C#Cc2ccc(O)c(Br)c2)cc1` [Compound 4n, 2-((4-((3-bromo-4-hydroxyphenyl)ethynyl)phenyl)amino)-2-oxoacetic Acid], the half-maximal inhibitory concentration (IC50) is 44.5 ± 3.4 µM in assay [1], more than 50 µM in assay [3] and more than 50 µM in assay [2].

For the compound `CC(C)(C)OC(=O)NCC#Cc1ccc(NC(=O)C(=O)O)cc1` [Compound 3, 2-((4-(3-((tert-butoxycarbonyl)amino)prop-1-yn-1-yl)phenyl)amino)-2-oxoacetic Acid], the IC50 was 58 ± 2 µM in assay [1] and more than 100 µM in assay [2].

Take `O=C(O)C(=O)Nc1cccc(C#Cc2ccccc2)c1` [Compound 5, 2-oxo-2-((3-(phenylethynyl)phenyl)amino)acetic Acid]: the figures for the IC50 in assay [1] and in assay [2] were 69 ± 4 µM and more than 100 µM, respectively.

As for `NS(=O)(=O)c1ccc(C#Cc2ccc(NC(=O)C(=O)O)cc2)cc1` [Compound 4l, 2-oxo-2-((4-((4-sulfamoylphenyl)ethynyl)phenyl)amino)acetic Acid], the results for the IC50 in assay [1], in assay [3] and in assay [2] were more than 50 µM, 29.9 ± 3.3 µM and more than 50 µM, respectively.

As for `O=C(O)C(=O)Nc1ccc(CCc2ccc(C(F)(F)F)cc2)cc1` [Compound 12, 2-oxo-2-((4-(4-(trifluoromethyl)phenethyl)phenyl)amino)acetic Acid], the figures for the IC50 in assay [1], in assay [4] and in assay [2] were more than 30 µM, 0.197 ± 0.013 µM and more than 30 µM, respectively. The “fold less potency compared to corresponding alkyne analogs 4 and 4k” value in assay [4] is reported as 13 fold.

`C#Cc1ccc(NC(=O)C(=O)O)cc1` [Compound 2, 2-((4-ethynylphenyl)amino)-2-oxoacetic Acid]: the IC50 in assay [1] and in assay [2] was more than 100 µM each time.

Turning to `COC(=O)c1ccc(C#Cc2ccc(NC(=O)C(=O)O)cc2)cc1` [Compound 4a, 2-((4-((4-(methoxycarbonyl)phenyl)ethynyl)phenyl)amino)-2-oxoacetic Acid], the IC50 in assay [1] is 52.6 ± 6.4 µM; in assay [3] it was more than 100 µM; in assay [4] (setting [5]), 0.023 ± 0.004 µM; in assay [2], more than 100 µM.

For the compound `O=C(O)C(=O)Nc1ccccc1` [Compound 1, Oxanilic Acid], the IC50 in assay [1] and in assay [2] was more than 100 µM in each case.

Take `O=C(O)C(=O)Nc1ccc(C#Cc2ccc(O)cc2)cc1` [Compound 4m, 2-((4-((4-hydroxyphenyl)ethynyl)phenyl)amino)-2-oxoacetic Acid]: the IC50 in assay [1], in assay [3] and in assay [2] was more than 50 µM each time.

`O=C(O)C(=O)Nc1ccc(/C=C\c2ccc(C(F)(F)F)cc2)cc1` [Compound 10, (Z)-2-oxo-2-((4-(4-(trifluoromethyl)styryl)phenyl)amino)acetic Acid]: the figures for the IC50 in assay [1], in assay [4] and in assay [2] were more than 30 µM, 0.684 ± 0.025 µM and more than 30 µM, respectively. In assay [4], the “fold less potency compared to corresponding alkyne analogs 4 and 4k” value is 45 fold.

With `O=C(O)C(=O)Nc1ccc(C#Cc2cccc(C(F)(F)F)c2)cc1` [Compound 4j, 2-oxo-2-((4-((3-(trifluoromethyl)phenyl)ethynyl)phenyl)amino)acetic Acid], the IC50 in assay [1] is more than 50 µM; in assay [3], more than 50 µM; in assay [2], 29.5 ± 4.1 µM.

With `O=C(O)C(=O)Nc1ccc(/C=C\c2ccccc2)cc1` [Compound 9, (Z)-2-oxo-2-((4-styrylphenyl)amino)acetic Acid], the figures for the IC50 in assay [1], in assay [4] and in assay [2] were more than 30 µM, 0.77 ± 0.015 µM and more than 30 µM, respectively. The “fold less potency compared to corresponding alkyne analogs 4 and 4k” value in assay [4] is 3 fold.
